Measured values from US5032597A, “Method of using phenylquinolinecarboxylic acids and derivatives for lymthoid leukemia treatment in a mammal” (priority 1987, dated 1991).
≈ marks a conversion by molar mass, not a printed value. Read-outs that look alike come from different tables or passages of the source.

Legend:
L1210 leukemia = experiment: Lymphoid Leukemia L1210, survival of tumored mice; type: in vivo, CD2F1 mice; settings: Mus musculus, L1210, ip, 720 h, read-out: L1210 Leukemia % T/C (median survival time); for response vs control in vivo at 400 mg/kg: 400 mg/kg i.p.; for response vs control in vivo at 200 mg/kg: 200 mg/kg i.p.; for response vs control in vivo at 25 mg/kg: 25 mg/kg i.p.; for response vs control in vivo at 50 mg/kg: 50 mg/kg i.p.
Experimental: The efficacy of the compounds of this invention against the transplanted mouse tumors was evaluated in test systems currently in use at the National Cancer Institute for the detection and assessment of anticancer activity. […] J. Cancer, 17, 129-142, (1981); Venditti, J. M., Seminars in Oncology, 8 (4) (1981); Goldin, A. and J. M. Venditti, in Recent Results in Cancer Research, 70, S. K. Carter and Y. Sakurai, Eds., Springer-Verlag, Berlin/Heidelberg, 1980].
The animals used in this test were CD2 F1 mice, all males weighing a minimum of 18 g and all within a 4 g weight range at the start of the test. The test group consisted of six mice. The tumor was implanted in each of the test mice by the intraperitoneal injection of 0.1 ml of diluted ascitic fluid containing 10^5 cells drawn from a mouse with L1210 leukemia. The test compounds were suspended in hydroxypropylcellulose or saline with Tween® 80 surfactant or dissolved in saline and injected intraperitoneally, at various doses, once daily for nine consecutive days starting on day one relative to the day of tumor inoculation (day 0). The control mice received injections of saline or hydroxypropylcellulose vehicle only. The mice were weighed and survivors were recorded on a regular basis for 30 days. The median survival time and the ratio of the median survival time for the treated (T) and control (C) mice was calculated. […] Drug effectiveness was assessed on the basis of the survival time. Results were expressed as a percentage of the control survival time (Median Survival Time: T/C ×100%). The criterion for effectiveness was determined by: T/C×100≥125 percent.

[1] = system: human colon carcinoma cells HCT-15; experiment: Human colon tumor test in vitro, HCT-15 cell growth inhibition; type: cell-based; settings: for IC50: Homo sapiens, HCT-15, 72 h, read-out: in vitro HCT-15 ID50 (50 percent inhibition of number of doublings); for in vitro HCT-15 ID50 (50 percent inhibition of number of doublings): 4320 min
Experimental: The compound of this invention were also tested for their ability to inhibit the growth of human colon carcinoma cells in vitro.
The human colon carcinoma cells, designated HCT-15, were derived from a specimen of an adenocarcinoma of human colon removed during surgery. The cells were grown in Roswell Park Medical Institute (RPMI) Medium 1640 supplemented with 10% heat inactivated fetal calf serum, penicillin (100 units/ml), streptomycin (100 μg/ml), gentamicin (20 μg/ml), fungizone (25 μg/ml), 0.075 percent sodium bicarbonate, […] 4-(2-hydroxyethyl)-1-piperazineethanesulfonic acid and […] N-tris(hydroxymethyl)methylglycine. […] On day 1 cells from sample dishes were harvested using trypsin (0.25%) treatment and counted with a hemocytometer to determine the number of cells per dish at the time of the addition of the compounds. Compounds of this invention were added in varying concentrations to other cultures. On day 4, treated and control cultures were harvested by trypsin treatment and the number of cells was determined. The number of doublings for the control cells was determined from the cell numbers on days 1 and 4. The ID50, the concentration of compound required to inhibit by 50 percent the number of doublings, was then calculated from the dose-response curve in which cell numbers were plotted on log-log paper against compound concentrations in micrograms per ml.

[2] = HCT-15 cells, compound day 1 to day 4

| SMILES | response vs control in vivo at 400 mg/kg (L1210 leukemia) | in vitro HCT-15 ID50 (50 percent inhibition of number of doublings) [1, 2] | IC50 [1, 2] | also measured |
| --- | --- | --- | --- | --- |
| COc1cccc2c1C(=O)c1c(O)c3c(c(O)c1C2=O)C[C@@](O)(C(=O)CO)C[C@@H]3O[C@H]1C[C@H](N)[C@H](O)[C@H](C)O1 [Adriamycin, reference compound] | – | – | – | response vs control in vivo at 2 mg/kg (L1210 leukemia): 183%; IC50 [1]: 0.01 µg/mL (≈ 0.0184 µM) |
| Cc1c(-c2ccc(C3CCCCC3)cc2)nc2ccc(Cl)cc2c1C(=O)O [Example 3] | 207% | 0.50 µg/mL | – | – |
| O=C(O)c1cc(-c2ccc(C3CCCCC3)cc2)nc2ccc(Cl)cc12 [Example 4] | – | – | 0.48 µg/mL (≈ 1.31 µM) | response vs control in vivo at 200 mg/kg (L1210 leukemia): 128% |
| O=C(O)c1cc(-c2ccc(C3CCCCC3)cc2)nc2ccc(F)cc12 [Example 5] | 141% | – | 0.02 µg/mL (≈ 0.0572 µM) | – |
| Cc1ccc2nc(-c3ccc(C4CCCCC4)cc3)c(C)c(C(=O)O)c2c1 [Example 6] | 162% | 0.24 µg/mL | – | – |
| CCCCCCCCCCc1ccc(-c2nc3ccc(F)cc3c(C(=O)O)c2C)cc1 [Example 7] | – | 2.30 µg/mL | – | response vs control in vivo at 200 mg/kg (L1210 leukemia): 136% |
| CCCCCCc1ccc(-c2nc3ccc(F)cc3c(C(=O)O)c2C)cc1 [Example 8] | 147% | – | 0.4 µg/mL (≈ 1.09 µM) | – |
| CCC(C)c1ccc(-c2nc3ccc(F)cc3c(C(=O)O)c2C)cc1 (centres unmarked) [Example 9] | – | 0.07 µg/mL | – | response vs control in vivo at 200 mg/kg (L1210 leukemia): 127% |
| CCc1c(-c2ccc(C3CCCCC3)cc2)nc2ccc(F)cc2c1C(=O)O [Example 10] | – | 0.03 µg/mL | – | response vs control in vivo at 200 mg/kg (L1210 leukemia): 163% |
| Cc1c(-c2ccc(Oc3ccccc3)cc2)nc2ccc(F)cc2c1C(=O)O [Example 11] | – | 0.19 µg/mL | – | response vs control in vivo at 25 mg/kg (L1210 leukemia): 176% |
| Cc1c(-c2ccc(-c3ccc(Br)cc3)cc2)nc2ccc(F)cc2c1C(=O)O [Example 12] | – | – | 1 µg/mL (≈ 2.29 µM) | response vs control in vivo at 50 mg/kg (L1210 leukemia): 261% |
| Cc1c(-c2ccc(SC(C)C)cc2)nc2ccc(F)cc2c1C(=O)O [Example 13] | 129% | – | 0.24 µg/mL (≈ 0.675 µM) | – |
| Cc1ccc2nc(-c3ccc(-c4ccccc4)cc3)c(C)c(C(=O)O)c2c1 [Example 14] | – | – | 0.38 µg/mL (≈ 1.08 µM) | response vs control in vivo at 50 mg/kg (L1210 leukemia): 195% |
| CCc1c(-c2ccc(C3CCCCC3)cc2)nc2ccc(C)cc2c1C(=O)O [Example 15] | – | – | 0.28 µg/mL (≈ 0.75 µM) | response vs control in vivo at 200 mg/kg (L1210 leukemia): 158% |
| Cc1c(-c2ccc(OCc3ccccc3)cc2)nc2ccc(F)cc2c1C(=O)O [Example 16] | 190% | – | 1 µg/mL (≈ 2.58 µM) | – |
| CCc1c(-c2ccc(C(C)CC)cc2)nc2ccc(F)cc2c1C(=O)O (centres unmarked) [Example 17] | 136% | 0.65 µg/mL | – | – |
| CCc1c(-c2ccc(-c3ccccc3)cc2)nc2ccc(F)cc2c1C(=O)O [Example 18] | – | < 0.50 µg/mL | – | response vs control in vivo at 100 mg/kg (L1210 leukemia; 100 mg/kg i.p.): 185% |
| Cc1c(-c2ccc(-c3ccccc3)cc2)nc2ccc(Cl)cc2c1C(=O)O [Example 19] | – | – | < 0.5 µg/mL | response vs control in vivo at 25 mg/kg (L1210 leukemia): 234% |
| Cc1c(-c2ccc(Oc3ccccc3)cc2)nc2ccc(Cl)cc2c1C(=O)O [Example 20] | – | – | < 0.5 µg/mL | response vs control in vivo at 200 mg/kg (L1210 leukemia): 211% |
| COc1ccc(-c2ccc(-c3nc4ccc(Cl)cc4c(C(=O)O)c3C)cc2)cc1 [Example 24] | 154% | 0.28 µg/mL | – | – |
| Cc1c(-c2ccc(SCc3ccccc3)cc2)nc2ccc(F)cc2c1C(=O)O [Example 26] | – | – | < 0.5 µg/mL | response vs control in vivo at 300 mg/kg (L1210 leukemia; 300 mg/kg i.p.): 136% |
| Cc1c(-c2ccc(-c3ccccc3F)cc2)nc2ccc(F)cc2c1C(=O)O [Example 28, 2-(2'-Fluoro-1,1'-biphenyl-4-yl)-6-fluoro-3-methyl4-quinolinecarboxylic acid] | – | – | < 0.5 µg/mL | response vs control in vivo at 18 mg/kg (L1210 leukemia; 18 mg/kg i.p.): 174% |
